# In PubChem BioAssay AID330 (DTP/NCI, 2004):
# “And” between values parts separate entries of the source, which are not always exact repeats. Equal entries are not always repeated. Toxic doses and inconclusive results are not listed.
# System: P388 leukemia ip, CD2F1 mice, survival T/C
# Assay: NCI In Vivo Anticancer Drug Screen. Data for tumor model P388 Leukemia (intraperitoneal) in CD2F1 (CDF1) mice
# Conditions: endpoint: median survival time, higher = longer survival
# Outline: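 Mice carrying the transplanted tumor received test compound or vehicle. Survival was recorded in each group, and the value is the treated-group measurement divided by that of the vehicle-treated control group.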
# [1] = dose: 6.25 mg/kg/injection, schedule: Q01DX009 (ip), vehicle: saline with Tween-80
# [2] = dose: 12.5 mg/kg/injection, schedule: Q01DX009 (ip), vehicle: saline with Tween-80
# [3] = dose: 25.0 mg/kg/injection, schedule: Q01DX009 (ip), vehicle: saline with Tween-80
# [4] = dose: 50.0 mg/kg/injection, schedule: Q01DX009 (ip), vehicle: saline with Tween-80
# [5] = dose: 50.0 mg/kg/injection, schedule: Q01DX005 (ip), vehicle: saline with Tween-80
# [6] = dose: 100.0 mg/kg/injection, schedule: Q01DX005 (ip), vehicle: saline with Tween-80
# [7] = dose: 200.0 mg/kg/injection, schedule: Q01DX005 (ip), vehicle: saline with Tween-80
smiles,measurement,setting,value
Cc1c2ccccc2c(C)c2c1ccc1ccccc12,T/C,"dose: 3.13 mg/kg/injection, schedule: Q01DX009 (ip), vehicle: saline with Tween-80",167 % of control
same,T/C,"dose: 4.0 mg/kg/injection, schedule: Q01DX009 (ip), vehicle: saline with Tween-80",163 % of control
same,T/C,"dose: 6.2 mg/kg/injection, schedule: Q01DX009 (ip), vehicle: saline with Tween-80",163 % of control
same,T/C,[1],180 % of control and 184 % of control
same,T/C,"dose: 9.3 mg/kg/injection, schedule: Q01DX009 (ip), vehicle: saline with Tween-80",109 % of control
same,T/C,[2],175 % of control
same,T/C,"dose: 12.5 mg/kg/injection, schedule: Q04DX003 (ip), vehicle: other",104 % of control
same,T/C,[3],98 % of control and 100 % of control and 116 % of control
same,T/C,"dose: 25.0 mg/kg/injection, schedule: Q04DX003 (ip), vehicle: other",116 % of control
same,T/C,[4],100 % of control
same,T/C,"dose: 50.0 mg/kg/injection, schedule: Q04DX003 (ip), vehicle: other",116 % of control
same,T/C,"dose: 100.0 mg/kg/injection, schedule: Q04DX003 (ip), vehicle: other",111 % of control
Cc1ccc(C(=O)CC(=O)Nc2cc([N+](=O)[O-])ccc2OCCOc2ccc(C(C)(C)CC(C)(C)C)cc2)cc1,T/C,"dose: 18.75 mg/kg/injection, schedule: Q04DX003 (ip), vehicle: saline sonified",109 % of control
same,T/C,"dose: 37.5 mg/kg/injection, schedule: Q04DX003 (ip), vehicle: saline sonified",90 % of control
same,T/C,"dose: 75.0 mg/kg/injection, schedule: Q04DX003 (ip), vehicle: saline sonified",109 % of control
NNC(=S)Nc1ccccc1,T/C,"dose: 1.25 mg/kg/injection, schedule: Q01DX009 (ip), vehicle: saline with Tween-80",104 % of control
same,T/C,"dose: 2.5 mg/kg/injection, schedule: Q01DX009 (ip), vehicle: saline with Tween-80",100 % of control
same,T/C,"dose: 5.0 mg/kg/injection, schedule: Q01DX009 (ip), vehicle: saline with Tween-80",95 % of control
C/C([O-])=C(/c1nc(-c2ccc([N+](=O)[O-])o2)no1)[n+]1cc(C)ccc1C,T/C,[1],92 % of control
same,T/C,[2],94 % of control
same,T/C,[3],97 % of control
same,T/C,[4],94 % of control
CCN(CC)/C([Se])=N/N=C(\C)c1ccccn1,T/C,"dose: 100.0 mg/kg/injection, schedule: Q04DX003 (ip), vehicle: Klucel (hydroxypropylcellulose) (HPC)",108 % of control
same,T/C,"dose: 200.0 mg/kg/injection, schedule: Q04DX003 (ip), vehicle: Klucel (hydroxypropylcellulose) (HPC)",102 % of control
CC(CC(O)C(=O)O)CC(C)(C)C (centres undefined),T/C,[5],95 % of control
same,T/C,[6],96 % of control
same,T/C,[7],101 % of control
CN(C)C(=S)C(C)(C)C,T/C,[5],111 % of control
same,T/C,[6],103 % of control
same,T/C,[7],106 % of control
Cc1nc2sccc2c(=O)n1C,T/C,"dose: 50.0 mg/kg/injection, schedule: Q01DX005 (ip), vehicle: Klucel (hydroxypropylcellulose) (HPC)",97 % of control
same,T/C,"dose: 100.0 mg/kg/injection, schedule: Q01DX005 (ip), vehicle: Klucel (hydroxypropylcellulose) (HPC)",98 % of control
same,T/C,"dose: 200.0 mg/kg/injection, schedule: Q01DX005 (ip), vehicle: Klucel (hydroxypropylcellulose) (HPC)",103 % of control
COC12C(COC(=O)NCCO)C3=C(C(=O)C(C)=C(N)C3=O)N1CC1NC12 (centres undefined),T/C,"dose: 3.12 mg/kg/injection, schedule: Q01DX009 (ip), vehicle: Klucel (hydroxypropylcellulose) (HPC)",122 % of control
same,T/C,"dose: 3.13 mg/kg/injection, schedule: Q01DX009 (ip), vehicle: Klucel (hydroxypropylcellulose) (HPC)",169 % of control
same,T/C,"dose: 4.5 mg/kg/injection, schedule: Q01DX009 (ip), vehicle: Klucel (hydroxypropylcellulose) (HPC)",155 % of control
same,T/C,"dose: 6.25 mg/kg/injection, schedule: Q01DX009 (ip), vehicle: Klucel (hydroxypropylcellulose) (HPC)",163 % of control and 175 % of control
same,T/C,"dose: 9.0 mg/kg/injection, schedule: Q01DX009 (ip), vehicle: Klucel (hydroxypropylcellulose) (HPC)",190 % of control
same,T/C,"dose: 12.5 mg/kg/injection, schedule: Q01DX009 (ip), vehicle: Klucel (hydroxypropylcellulose) (HPC)",160 % of control and 212 % of control
same,T/C,"dose: 18.0 mg/kg/injection, schedule: Q01DX009 (ip), vehicle: Klucel (hydroxypropylcellulose) (HPC)",192 % of control and 201 % of control and 238 % of control
same,T/C,"dose: 25.0 mg/kg/injection, schedule: Q01DX009 (ip), vehicle: Klucel (hydroxypropylcellulose) (HPC)",211 % of control and 214 % of control
same,T/C,"dose: 28.0 mg/kg/injection, schedule: Q01DX009 (ip), vehicle: Klucel (hydroxypropylcellulose) (HPC)",181 % of control and 182 % of control
same,T/C,"dose: 43.0 mg/kg/injection, schedule: Q01DX009 (ip), vehicle: Klucel (hydroxypropylcellulose) (HPC)",92 % of control
same,T/C,"dose: 50.0 mg/kg/injection, schedule: Q01DX009 (ip), vehicle: Klucel (hydroxypropylcellulose) (HPC)",104 % of control
